According to US6855730B2, “3-methylidenyl-2-indolinone modulators of protein kinase” (Sugen, Inc., priority 1998, dated 2005):

Legend:
PDGFR-β = target: T1, PDGFR-β (Homo sapiens, UniProt P09619); assay: Biochemical PDGFR assay (ELISA, PDGFR-β expressing NIH 3T3 cell lysate); settings: read-out: bio PDGF IC50
T1 construct: host or cells: NIH 3T3
In short: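 PDGFR-β from NIH 3T3 cell lysate captured on anti-PDGFR (28D4C10)-coated plates; compound preincubated 30 min, then 20 μM ATP kinase reaction 30 min at room temperature, stopped with EDTA. Phosphotyrosine detected by anti-phosphotyrosine antibody, peroxidase conjugate and ABTS/H2O2, read at 410 nm.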

pyk2 = pyk2 (Homo sapiens, UniProt Q14289); assay: bio pyk2 assay; format: biochemical
Chain of pyk2 (Q14289 whole entry, species assumed): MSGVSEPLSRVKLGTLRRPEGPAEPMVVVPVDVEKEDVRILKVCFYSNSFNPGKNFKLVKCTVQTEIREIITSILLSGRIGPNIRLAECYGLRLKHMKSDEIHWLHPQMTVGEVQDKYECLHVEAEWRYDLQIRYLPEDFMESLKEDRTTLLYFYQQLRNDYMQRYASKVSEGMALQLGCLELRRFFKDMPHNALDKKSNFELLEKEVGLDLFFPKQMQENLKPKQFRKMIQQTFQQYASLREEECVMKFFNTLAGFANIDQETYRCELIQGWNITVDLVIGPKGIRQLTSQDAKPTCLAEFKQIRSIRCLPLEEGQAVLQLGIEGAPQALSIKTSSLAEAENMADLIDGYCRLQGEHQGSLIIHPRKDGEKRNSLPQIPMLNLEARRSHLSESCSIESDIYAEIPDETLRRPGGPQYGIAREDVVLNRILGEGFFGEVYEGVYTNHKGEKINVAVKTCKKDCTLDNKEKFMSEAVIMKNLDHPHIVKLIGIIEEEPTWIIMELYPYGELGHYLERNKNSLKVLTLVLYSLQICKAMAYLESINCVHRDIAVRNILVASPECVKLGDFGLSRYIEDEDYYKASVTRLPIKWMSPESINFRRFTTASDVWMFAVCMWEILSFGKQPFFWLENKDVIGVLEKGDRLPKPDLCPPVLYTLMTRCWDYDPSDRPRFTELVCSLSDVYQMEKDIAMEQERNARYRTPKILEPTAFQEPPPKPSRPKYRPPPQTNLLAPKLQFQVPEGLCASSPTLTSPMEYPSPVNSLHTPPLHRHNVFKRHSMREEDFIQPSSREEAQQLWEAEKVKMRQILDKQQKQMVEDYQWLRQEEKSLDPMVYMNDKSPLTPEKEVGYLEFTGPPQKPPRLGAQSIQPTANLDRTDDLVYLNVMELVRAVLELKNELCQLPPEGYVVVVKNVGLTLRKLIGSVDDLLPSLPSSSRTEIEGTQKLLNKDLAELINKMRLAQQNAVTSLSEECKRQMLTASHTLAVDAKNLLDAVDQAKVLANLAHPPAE

T1 sequence (P09619 33-1106): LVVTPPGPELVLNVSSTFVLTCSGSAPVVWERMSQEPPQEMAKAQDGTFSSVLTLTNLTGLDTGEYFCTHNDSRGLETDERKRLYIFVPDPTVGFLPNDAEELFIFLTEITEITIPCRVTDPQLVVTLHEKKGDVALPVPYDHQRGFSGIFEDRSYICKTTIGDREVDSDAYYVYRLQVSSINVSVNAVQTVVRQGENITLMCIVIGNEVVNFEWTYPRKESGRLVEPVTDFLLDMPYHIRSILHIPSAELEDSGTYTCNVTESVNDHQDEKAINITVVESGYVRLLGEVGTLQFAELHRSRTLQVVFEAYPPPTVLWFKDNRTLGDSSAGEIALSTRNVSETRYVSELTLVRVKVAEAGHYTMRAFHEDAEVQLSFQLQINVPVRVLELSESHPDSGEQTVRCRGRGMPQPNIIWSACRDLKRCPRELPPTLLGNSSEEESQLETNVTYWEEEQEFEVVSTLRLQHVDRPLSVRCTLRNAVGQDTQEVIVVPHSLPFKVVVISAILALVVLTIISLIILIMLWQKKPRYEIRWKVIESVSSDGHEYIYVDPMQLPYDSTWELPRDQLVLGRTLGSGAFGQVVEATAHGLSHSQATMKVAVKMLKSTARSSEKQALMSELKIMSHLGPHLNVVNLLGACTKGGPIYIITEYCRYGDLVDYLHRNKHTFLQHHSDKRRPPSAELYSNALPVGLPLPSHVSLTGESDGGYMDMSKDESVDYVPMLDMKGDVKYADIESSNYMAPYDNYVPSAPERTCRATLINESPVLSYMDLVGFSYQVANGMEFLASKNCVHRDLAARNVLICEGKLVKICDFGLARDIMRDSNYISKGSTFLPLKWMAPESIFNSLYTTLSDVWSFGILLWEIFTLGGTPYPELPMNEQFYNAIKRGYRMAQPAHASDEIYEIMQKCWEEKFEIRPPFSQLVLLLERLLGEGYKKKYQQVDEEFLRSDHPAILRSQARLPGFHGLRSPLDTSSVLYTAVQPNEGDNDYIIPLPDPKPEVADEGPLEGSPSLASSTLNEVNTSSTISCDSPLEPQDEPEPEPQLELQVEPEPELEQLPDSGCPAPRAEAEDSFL

Compound	IC50 (PDGFR-β)	IC50 (pyk2)
O=C1Nc2ccc(C(=O)O)cc2/C1=C/c1ccc2[nH]ccc2c1 [Example 177, 3-(1H-Indol-5-ylmethylene)-2-oxo-2,3-dihydro-1H-indole-5-carboxylic acid]	> 100 µM	> 100 µM
Cc1c[nH]c(/C=C2\C(=O)Nc3ccccc32)c1CCC(=O)O [Example 215, 3-[4-Methyl-2-(2-oxo-1,2-dihydroindol-3-ylidenemethyl)-1H-pyrrol-3-yl]-propionic acid]	0.5 µM	6.9 µM
Cc1c[nH]c(/C=C2\C(=O)Nc3ccc(Br)cc32)c1CCC(=O)O [Example 220, 3-[2-(5-Bromo-2-oxo-1,2-dihydroindol-3-ylidenemethyl)-4-methyl-1H-pyrrol-3-yl]-propionic acid]	0.62 µM	1.89 µM

Now from value to compound:

IC50 (PDGFR-β)	IC50 (pyk2)	Compound
> 100 µM	12 µM	CN(C)C(=O)CCc1c(/C=C2\C(=O)Nc3ccccc32)[nH]c2c1CCCC2 [Example 197, N,N-Dimethyl-3-[2-(2-oxo-1,2-dihydroindol-3-ylidenemethyl)-4,5,6,7-tetrahydro-1H-indol-3-yl]-propionamide]
44.6 µM	17.3 µM	Cc1cccc2c1/C(=C/c1[nH]c3c(c1CCC(=O)O)CCCC3)C(=O)N2 [Example 193, 3-[2-(4-Methyl-2-oxo-1,2-dihydroindol-3-ylidenemethyl)-4,5,6,7-tetrahydro-1H-indol-3-yl]-propionic acid]
2.04 µM	10.7 µM	O=C(O)CCc1c(/C=C2\C(=O)Nc3cc(Cl)ccc32)[nH]c2c1CCCC2 [Example 195, 3-[2-(6-Chloro-2-oxo-1,2-dihydroindol-3-ylidenemethyl)-4,5,6,7-tetrahydro-1H-indol-3-yl]-propionic acid]
